Experimental data published in patent US11260011B2, “Use of neohesperidin” (NATURAL MEDICINE INSTITUTE OF ZHEJIANG YANGSHENGTANG CO., …, priority 2011, dated 2022).
Several values for one entry are separate records, joined by “and”; a condition that tells them apart may be missing. Identical values can stand only once.

Legend:
[1] = topical application to human skin; cited from earlier work
[2] = Effect of topical application of neohesperidin on skin microcirculation by Laser Doppler Flowmetery; type: in vivo, Oryctolagus cuniculus; parameters: key to Working time point: —: represents the time point at which P < 0.1 did not appear during the 24 h test when 2% solution was administered orally
Source text: The experimental method for promoting microcirculation: Male Oryctolagus cuniculus weighted 3.0-3.5 kg were used. After shaving the hair on the back of the Oryctolagus cuniculus, 10 points for testing blood flow were marked with a marker pen on the hairless skin of the rabbit, i.e. 5 points for each of the right side and the left side, and aorta was avoided when drawing the points. Before smearing the sample, the basic values of blood flow at the 10 points of rabbits of each experimental group were determined by Laser Doppler Flowmetery. […] 2% (w/v) solution was orally administrated by a similar method in a volume 100 times compared to the volume used in the group wherein the 2% (w/v) solution was administered by smearing. After administration, the blood flow value was determined every hour at the same point by Laser Doppler Flowmetery for 24 h, and the variation index of blood flow was calculated to evaluate the effect of neohesperidin on the back blood of rabbits, wherein a higher variation index of blood flow indicated a better effect of promoting microcirculation. The experimental results were statistically analyzed by SPSS11.5 software, and t-test was applied to the measured data to evaluate the experimental results. When P<0.1, the data may be regarded as statistically significant. In the results of Table 1, all the time points with P<0.1 in the 24-h test were listed.

Compound	improvement of skin microcirculation after topical administration to skin surface [1]	also measured
C[C@@H]1CC[C@@]2(OC1)O[C@H]1C[C@H]3[C@@H]4CC=C5C[C@@H](O)C[C@@H](O)[C@]5(C)[C@H]4CC[C@]3(C)[C@H]1[C@@H]2C [ruscogenin]	cannot significantly improve skin microcirculation	
ginsenoside	cannot significantly improve skin microcirculation	
β-aescin	cannot significantly improve skin microcirculation	
ginkgo flavone	cannot significantly improve skin microcirculation	
tanshinone	cannot significantly improve skin microcirculation	
COc1ccc([C@@H]2CC(=O)c3c(O)cc(O[C@@H]4O[C@H](CO)[C@@H](O)[C@H](O)[C@H]4O[C@@H]4O[C@@H](C)[C@H](O)[C@@H](O)[C@H]4O)cc3O2)cc1O [neohesperidin]		Working time point ([2]; 0.5% (w/v) solution, smearing on back skin, time points with P<0.1 in 24-h test): 6 h; Working time point ([2]; 1% (w/v) solution, smearing on back skin, time points with P<0.1 in 24-h test): 2 h and 3 h; Working time point ([2]; 2% (w/v) solution, orally, 24-h test): —; blood flow in skin microvessels as compared to the blank side ([2]; smearing backs of rabbits with different concentrations): significantly enhanced
